Tests used:
HCT-116 [1] = assay: Antiproliferative activity against human HCT-116 cells; assay type: functional, cell-based
PC-3 = assay: Antiproliferative activity against human PC-3 cells; assay type: functional, cell-based
HCT-116 [2] = assay: Antiproliferative activity against human HCT-116 cells assessed as reduction in cell viability; assay type: functional, cell-based; settings: Homo sapiens, HCT-116
MDA-MB-231 [3] = assay: Antiproliferative activity against human MDA-MB-231 cells assessed as reduction in cell viability; assay type: functional, cell-based
HT-29 = assay: Antiproliferative activity against human HT-29 cells assessed as reduction in cell viability; assay type: functional, cell-based
DLD-1 = assay: Cytotoxicity against human DLD-1 cells assessed as cell growth inhibition measured after 48 hrs by MTT assay; assay type: functional
[4] = Cytotoxicity against human U87 cells assessed as cell growth inhibition measured after 48 hrs by MTT assay; assay type: functional, U-87MG ATCC; settings: U-87 MG
HeLa = assay: Cytotoxicity against human HeLa cells assessed as cell growth inhibition measured after 48 hrs by MTT assay; assay type: functional
SiHa = assay: Cytotoxicity against human SiHa cells assessed as cell growth inhibition measured after 48 hrs by MTT assay; assay type: functional
A 172 = assay: Cytotoxicity against human A-172 cells assessed as cell growth inhibition measured after 48 hrs by MTT assay; assay type: functional
B16 = assay: Cytotoxicity against mouse B16 cells assessed as cell growth inhibition measured after 48 hrs by MTT assay; assay type: functional
MDA-MB-231 [5] = assay: Antiproliferative activity against human MDA-MB-231 cells; assay type: functional, cell-based; settings: Homo sapiens, MDA-MB-231
MCF7 = assay: Anticancer activity against human MCF7 cells; assay type: functional, cell-based
A549 = assay: Antiproliferative activity against human A549 cells; assay type: functional, cell-based

Structure (SMILES) | IC50 (HCT-116 [1]) [nM] | IC50 (PC-3) [nM] | IC50 (MDA-MB-231 [3]) [nM] | IC50 (HT-29) [nM] | also measured
C[C@H]1[C@@H](OC(=O)CCC(=O)O)O[C@@H]2O[C@@]3(C)CC[C@H]4[C@H](C)CC[C@@H]1[C@@]24OO3 | 5300 | 5300 |  |  | 
CC1=C(CCOC(=O)CCC(=O)O[C@@H]2O[C@@H]3O[C@@]4(C)CC[C@H]5[C@H](C)CC[C@@H]([C@H]2C)[C@@]35OO4)C(=O)C(C(C)C)=CC1=O | 2400 | 2400 |  |  | 
Cc1c(Cl)c(=O)oc2cc(OCCn3cc(CO[C@H]4O[C@@H]5O[C@@]6(C)CC[C@H]7[C@H](C)CC[C@@H]([C@H]4C)[C@@]57OO6)nn3)ccc12 |  |  | 430 | 430 | IC50 (HCT-116 [2]): 430 nM
CC1=C(CCCCOC(=O)C[C@H]2O[C@@H]3O[C@@]4(C)CC[C@H]5[C@H](C)CC[C@@H]([C@H]2C)[C@@]35OO4)C(=O)C(C(C)C)=CC1=O | > 100000 | > 100000 |  |  | 
CC1=C(CCCOC(=O)CCC(=O)O[C@@H]2O[C@@H]3O[C@@]4(C)CC[C@H]5[C@H](C)CC[C@@H]([C@H]2C)[C@@]35OO4)C(=O)C(C(C)C)=CC1=O | > 100000 | > 100000 |  |  | 
CC1=C(CCCOC(=O)C[C@H]2O[C@@H]3O[C@@]4(C)CC[C@H]5[C@H](C)CC[C@@H]([C@H]2C)[C@@]35OO4)C(=O)C(C(C)C)=CC1=O | > 100000 | > 100000 |  |  | 
CC1=C(CCCO[C@H]2O[C@@H]3O[C@@]4(C)CC[C@H]5[C@H](C)CC[C@@H]([C@H]2C)[C@@]35OO4)C(=O)C(C(C)C)=CC1=O | > 100000 | > 100000 |  |  | 
CC1=C(CCCCOC(=O)CCC(=O)O[C@@H]2O[C@@H]3O[C@@]4(C)CC[C@H]5[C@H](C)CC[C@@H]([C@H]2C)[C@@]35OO4)C(=O)C(C(C)C)=CC1=O | > 100000 | > 100000 |  |  | 
C[C@H]1[C@@H](n2cc(-c3ccccc3)nn2)O[C@@H]2O[C@@]3(C)CC[C@H]4[C@H](C)CC[C@@H]1[C@@]24OO3 |  |  |  |  | GI50 (DLD-1): 130 nM; GI50 [4]: 130 nM; GI50 (HeLa): 130 nM; GI50 (SiHa): 130 nM; GI50 (A 172): 130 nM; GI50 (B16): 130 nM
C[C@H]1[C@H](n2nncc2-c2ccccc2C(F)(F)F)O[C@@H]2O[C@@]3(C)CC[C@H]4[C@H](C)CC[C@@H]1[C@@]24OO3 |  |  |  |  | GI50 (DLD-1): 40 nM; GI50 [4]: 40 nM; GI50 (HeLa): 40 nM; GI50 (SiHa): 40 nM; GI50 (A 172): 40 nM; GI50 (B16): 40 nM
Cc1ccccc1NS(=O)(=O)/C=C/c1ccc(OCc2ccc(C(=O)NCCO[C@@H]3O[C@@H]4O[C@@]5(C)CC[C@H]6[C@H](C)CC[C@@H]([C@H]3C)[C@@]46OO5)cc2)cc1 |  |  |  | 90 | IC50 (MDA-MB-231 [5]): 90 nM
Cc1c(C)c2ccc(OCCn3cc(CO[C@H]4O[C@@H]5O[C@@]6(C)CC[C@H]7[C@H](C)CC[C@@H]([C@H]4C)[C@@]57OO6)nn3)cc2oc1=O |  |  | 430 | 430 | IC50 (HCT-116 [2]): 430 nM
C[C@H]1[C@H](OCCNC(=O)c2ccc(COc3ccc(/C=C/S(=O)(=O)Nc4ccccc4)cc3)cc2)O[C@@H]2O[C@@]3(C)CC[C@H]4[C@H](C)CC[C@@H]1[C@@]24OO3 |  |  |  | 90 | IC50 (MDA-MB-231 [5]): 90 nM
CCOC(=O)c1cc2ccc(OCCn3cc(CO[C@H]4O[C@@H]5O[C@@]6(C)CC[C@H]7[C@H](C)CC[C@@H]([C@H]4C)[C@@]57OO6)nn3)cc2oc1=O |  |  | 430 | 430 | 
C[C@H]1[C@@H](OCc2cn(CCOc3ccc4c(C(F)(F)F)cc(=O)oc4c3)nn2)O[C@@H]2O[C@@]3(C)CC[C@H]4[C@H](C)CC[C@@H]1[C@@]24OO3 |  |  | 430 | 430 | IC50 (HCT-116 [2]): 430 nM
C[C@H]1[C@@H](CC(=O)O[C@@H]2C[C@@H](OC(=O)C[C@H]3O[C@@H]4O[C@@]5(C)CC[C@H]6[C@H](C)CC[C@@H]([C@H]3C)[C@@]46OO5)[C@H](C)O[C@H]2O[C@H](C)CCCCC2OCOO2)O[C@@H]2O[C@@]3(C)CC[C@H]4[C@H](C)CC[C@@H]1[C@@]24OO3 (stereo partly specified) |  |  | 5500 |  | IC50 (MCF7): 5500 nM; IC50 (A549): 5500 nM
C[C@H]1[C@H](OCCNC(=O)c2ccc(COc3ccc(/C=C/S(=O)(=O)Nc4ccccc4Cl)cc3)cc2)O[C@@H]2O[C@@]3(C)CC[C@H]4[C@H](C)CC[C@@H]1[C@@]24OO3 |  |  |  | 90 | IC50 (A549): 90 nM; IC50 (MDA-MB-231 [5]): 90 nM
C[C@H]1[C@H](n2nncc2-c2cc(F)cc(F)c2)O[C@@H]2O[C@@]3(C)CC[C@H]4[C@H](C)CC[C@@H]1[C@@]24OO3 |  |  |  |  | GI50 (DLD-1): 40 nM; GI50 [4]: 40 nM; GI50 (HeLa): 40 nM; GI50 (SiHa): 40 nM; GI50 (A 172): 40 nM; GI50 (B16): 40 nM
CCOC(=O)c1cc2ccc(OCCCn3cc(CO[C@H]4O[C@@H]5O[C@@]6(C)CC[C@H]7[C@H](C)CC[C@@H]([C@H]4C)[C@@]57OO6)nn3)cc2oc1=O |  |  | 430 | 430 | 
Cc1c(Cl)c(=O)oc2cc(OCCCn3cc(CO[C@H]4O[C@@H]5O[C@@]6(C)CC[C@H]7[C@H](C)CC[C@@H]([C@H]4C)[C@@]57OO6)nn3)ccc12 |  |  | 430 | 430 | 
Cc1cc(=O)oc2cc(OCCn3cc(CO[C@H]4O[C@@H]5O[C@@]6(C)CC[C@H]7[C@H](C)CC[C@@H]([C@H]4C)[C@@]57OO6)nn3)ccc12 |  |  | 430 | 430 | IC50 (HCT-116 [2]): 430 nM
Cc1cc(=O)oc2cc(OCCCn3cc(CO[C@H]4O[C@@H]5O[C@@]6(C)CC[C@H]7[C@H](C)CC[C@@H]([C@H]4C)[C@@]57OO6)nn3)ccc12 |  |  | 430 | 430 | 
Cc1c(C)c2ccc(OCCCn3cc(CO[C@H]4O[C@@H]5O[C@@]6(C)CC[C@H]7[C@H](C)CC[C@@H]([C@H]4C)[C@@]57OO6)nn3)cc2oc1=O |  |  | 430 | 430 | 
C[C@H]1[C@H](OCCNC(=O)c2ccc(COc3ccc(/C=C/S(=O)(=O)Nc4c(Cl)cccc4Cl)cc3)cc2)O[C@@H]2O[C@@]3(C)CC[C@H]4[C@H](C)CC[C@@H]1[C@@]24OO3 |  |  |  | 90 | IC50 (A549): 90 nM; IC50 (MDA-MB-231 [5]): 90 nM
CC1=C(CCCCO[C@H]2O[C@@H]3O[C@@]4(C)CC[C@H]5[C@H](C)CC[C@@H]([C@H]2C)[C@@]35OO4)C(=O)C(C(C)C)=CC1=O | > 100000 | > 100000 |  |  | 
C[C@H]1[C@@H](OCc2cn(CCCOc3ccc4c(C(F)(F)F)cc(=O)oc4c3)nn2)O[C@@H]2O[C@@]3(C)CC[C@H]4[C@H](C)CC[C@@H]1[C@@]24OO3 |  |  | 430 | 430 | IC50 (HCT-116 [2]): 430 nM
COc1ccc(-c2cnnn2[C@@H]2O[C@@H]3O[C@@]4(C)CC[C@H]5[C@H](C)CC[C@@H]([C@H]2C)[C@@]35OO4)cc1 |  |  |  |  | GI50 (DLD-1): 40 nM; GI50 [4]: 40 nM; GI50 (HeLa): 40 nM; GI50 (SiHa): 40 nM; GI50 (A 172): 40 nM; GI50 (B16): 40 nM
COc1cc([C@@H]2c3cc4c(cc3[C@@H](O[C@@H]3O[C@@H]5CO[C@@H](C)O[C@H]5[C@H](O)[C@H]3O)[C@H]3COC(=O)[C@H]23)OCO4)cc(OC)c1O [ETOPOSIDE] |  |  |  |  | IC50 (MCF7): 830 nM
CC1=CC(=O)C(C(C)C)=CC1=O [THYMOQUINONE] | 50100 | 50100 |  |  | 

From ChEMBL document CHEMBL5244230, “Artemisinin-derived hybrids and their anticancer activity” (Eur J Med Chem, 2020)
